We go through 23 compounds from patent US10316017B2, “COT modulators and methods of use thereof” (Gilead Sciences, Inc., priority 2015, dated 2019).

The test system of assay [1] is TNFα production in LPS-stimulated human monocytes. In words: Cot Monocyte TNFα Cell Based Assay. Conditions: Homo sapiens, Monocyte, TNFα in LPS-stimulated human monocytes; read-out: EC50 TNF. Put shortly: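 Percent-of-control values derive from TR-FRET ratios of TNFα in spun-down media, referenced to unstimulated and LPS-stimulated wells. Exposure: 1 h compound preincubation, then 50 pg/ml LPS for 4 h, both at 37 °C, with 0.5% final DMSO.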

Assay [2] addresses T1, human Cot catalytic domain (30-397 amino acids) (Homo sapiens, UniProt P41279).
T1 construct: Purified recombinant human Cot catalytic domain (30-397 amino acids) was purchased from Cama Biosciences; purchased Cama Biosciences (so in the source)
In words: High Throughput Cot Biochemical Assay (KinEASE TR-FRET). Conditions: Cot KinEASE TR-FRET (HTRF) biochemical assay, 400 μM ATP; read-out: IC50 HTRF. A digest of the protocol: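 Phosphorylation of 1 μM XL665-STK3 peptide by 5 nM Cot catalytic domain was measured by time-resolved FRET using a europium […] antibody. ATP was 400 μM; buffer was 10 mM MOPS pH 7.0 with Mg2+ and DTT.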

T1 sequence (P41279 30-397): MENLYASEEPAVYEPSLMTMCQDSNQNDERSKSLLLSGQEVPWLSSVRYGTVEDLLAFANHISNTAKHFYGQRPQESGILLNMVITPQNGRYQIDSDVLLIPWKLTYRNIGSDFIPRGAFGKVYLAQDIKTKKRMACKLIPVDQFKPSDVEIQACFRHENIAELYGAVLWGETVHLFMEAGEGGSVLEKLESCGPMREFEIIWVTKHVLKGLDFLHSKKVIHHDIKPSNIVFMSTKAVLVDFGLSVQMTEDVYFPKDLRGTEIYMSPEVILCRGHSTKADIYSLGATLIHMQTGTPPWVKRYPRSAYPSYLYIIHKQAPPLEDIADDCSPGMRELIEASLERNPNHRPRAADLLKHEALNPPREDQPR

For the compound `[2H][C@](Nc1cc(Cl)c2ncc(C#N)c(N[C@H](CO)C(C)(C)C)c2c1)(c1ccc(F)cc1)c1cn(C2CC2)nn1` [Example 187, 8-chloro-6-(((S)-(1-cyclopropyl-1H-1,2,3-triazol-4-yl)(4-fluorophenyl)methyl-d)amino)-4-(((S)-1-hydroxy-3,3-dimethylbutan-2-yl)amino)quinoline-3-carbonitrile], the half-maximal effective concentration (EC50) in assay [1] was 793 nM. The concentration for half-maximal inhibition (IC50) in assay [2] came out at 85 nM.
In the case of `[2H][C@](Nc1cc(Cl)c2ncc(C#N)c(N[C@H](C)C(C)(C)C)c2c1)(c1ccc(F)cc1)c1cn(C2CC2)nn1` [Example 188, 8-chloro-6-(((S)-(1-cyclopropyl-1H-1,2,3-triazol-4-yl)(4-fluorophenyl)methyl-d)amino)-4-(((R)-3,3-dimethylbutan-2-yl)amino)quinoline-3-carbonitrile], the EC50 in assay [1] turned out to be 203 nM. In addition, the IC50 in assay [2] was determined as 16 nM.
The matching figures for `[2H][C@](Nc1cc(Cl)c2ncc(C#N)c(NC3CCCC3(C)C)c2c1)(c1ccc(F)cc1)c1cn(C2CC2)nn1` (stereo partly shown) [Example 189]: 157 nM and 10 nM.
`[2H][C@](Nc1cc(Cl)c2ncc(C#N)c(NC3CCOCC3(C)C)c2c1)(c1ccc(F)cc1)c1cn(C2CC2)nn1` (stereo partly drawn) [Example 190, 8-chloro-6-(((S)-(1-cyclopropyl-1H-1,2,3-triazol-4-yl)(4-fluorophenyl)methyl-d)amino)-4-((3,3-dimethyltetrahydro-2H-pyran-4-yl)amino)quinoline-3-carbonitrile]: in assay [1], the EC50 was found to be 55 nM. Also, the IC50 in assay [2] was determined as 3 nM.
On to `[2H][C@](Nc1cc(Cl)c2ncc(C#N)c(NCC(Cl)(Cl)Cl)c2c1)(c1ccc(F)cc1)c1cn(C2CC2)nn1` [Example 191, (S)-8-chloro-6-(((1-cyclopropyl-1H-1,2,3-triazol-4-yl)(4-fluorophenyl)methyl-d)amino)-4-((2,2,2-trichloroethyl)amino) quinoline-3-carbonitrile], for which the EC50 in assay [1] came to 487 nM. The IC50 in assay [2] turned out to be 56 nM.
As for `[2H][C@](Nc1cc(Cl)c2ncc(C#N)c(NCC(C)(C)CCl)c2c1)(c1ccc(F)cc1)c1cn(C2CC2)nn1` [Example 192, (S)-8-chloro-4-((3-chloro-2,2-dimethylpropyl)amino)-6-(((1-cyclopropyl-1H-1,2,3-triazol-4-yl)(4-fluorophenyl)methyl-d)amino)quinoline-3-carbonitrile], in assay [1], the EC50 was 107 nM. For the same compound, in assay [2], the IC50 is 3 nM.
The like results for `[2H]C(Nc1cc(Cl)c2ncc(C#N)c(NC(CS(C)(=O)=O)c3ccccc3)c2c1)(c1ccc(F)cc1)c1cn(C2CC2)nn1` (stereo not shown) [Example 193, 8-chloro-6-(((1-cyclopropyl-1H-1,2,3-triazol-4-yl)(4-fluorophenyl)methyl-d)amino)-4-((2-(methylsulfonyl)-1-phenylethyl)amino) quinoline-3-carbonitrile] were, in that order, 833 nM and 57 nM.
The matching figures for `[2H][C@](Nc1cc(C)c2ncc(C#N)c(NCC(C)(C)C)c2c1)(c1ccc(F)cc1)c1cn(C2CC2)nn1` [Example 194, (S)-6-(((1-cyclopropyl-1H-1,2,3-triazol-4-yl)(4-fluorophenyl)methyl-d)amino)-8-methyl-4-(neopentylamino) quinoline-3-carbonitrile]: 2420 nM and 286 nM.
The matching figures for `[2H][C@](Nc1cc(C(F)(F)F)c2ncc(C#N)c(N[C@H](CC)c3ccccc3)c2c1)(c1ccc(F)cc1)c1cn(C2CC2)nn1` [Example 195, 6-(((S)-(1-cyclopropyl-1H-1,2,3-triazol-4-yl)(4-fluorophenyl)methyl-d)amino)-4-(((R)-1-phenylpropyl)amino)-8-(trifluoromethyl) quinoline-3-carbonitrile]: 1190 nM and 160 nM.
Take `[2H][C@](Nc1cc(C(F)(F)F)c2ncc(C#N)c(NCC(C)(C)C)c2c1)(c1ccc(F)cc1)c1cn(C2CC2)nn1` [Example 196, (S)-6-(((1-cyclopropyl-1H-1,2,3-triazol-4-yl)(4-fluorophenyl)methyl-d)amino)-4-(neopentylamino)-8-(trifluoromethyl) quinoline-3-carbonitrile]: the EC50 in assay [1] came to 1510 nM. Besides, in assay [2], the IC50 worked out at 267 nM.
The matching figures for `[2H][C@@](Nc1cc(Cl)c2ncc(C#N)c(NCC(C)(C)C)c2c1)(c1cn(C2CC2)nn1)c1cccc(C#N)c1C` [Example 197, (S)-8-chloro-6-(((3-cyano-2-methylphenyl) (1-cyclopropyl-1H-1,2,3-triazol-4-yl)methyl-d)amino)-4-(neopentylamino) quinoline-3-carbonitrile]: 38 nM and 2 nM.
In the case of `[2H][C@](Nc1cc(Cl)c2ncc(C#N)c(NCC3(C(F)F)CCC3)c2c1)(c1ccc(F)cc1)c1cn(C2CC2)nn1` [Example 198], the EC50 in assay [1] was 229 nM. The concentration for half-maximal inhibition (IC50) in assay [2] was found to be 12 nM.
The matching figures for `[2H][C@](Nc1cc(Cl)c2ncc(C#N)c(NCC3(C)CC(F)(F)C3)c2c1)(c1ccc(F)cc1)c1cn(C2CC2)nn1` [Example 199, (S)-8-chloro-6-(((1-cyclopropyl-1H-1,2,3-triazol-4-yl)(4-fluorophenyl)methyl-d)amino)-4-(((3,3-difluoro-1-methylcyclobutyl)methyl)amino) quinoline-3-carbonitrile]: 395 nM and 21 nM.
The like results for `[2H][C@](Nc1cc(Cl)c2ncc(C#N)c(NC3CS(=O)(=O)C3)c2c1)(c1ccc(F)cc1)c1cn(C2CC2)nn1` [Example 200, (S)-8-chloro-6-(((1-cyclopropyl-1H-1,2,3-triazol-4-yl)(4-fluorophenyl)methyl-d)amino)-4-((1,1-dioxidothietan-3-yl)amino)quinoline-3-carbonitrile] were, in that order, 7580 nM and 244 nM.
The like results for `[2H][C@](Nc1cc(Cl)c2ncc(C#N)c(NC3COC3)c2c1)(c1ccc(F)cc1)c1cn(C2CC2)nn1` [Example 201, (S)-8-chloro-6-(((1-cyclopropyl-1H-1,2,3-triazol-4-yl)(4-fluorophenyl)methyl-d)amino)-4-(oxetan-3-ylamino) quinoline-3-carbonitrile] were, in that order, 2540 nM and 251 nM.
`[2H][C@](Nc1cc(C#N)c2ncc(C#N)c(N[C@H](CC#N)c3ccccc3)c2c1)(c1ccc(F)cc1)c1cn(C2CC2)nn1` [Example 202, 4-(((R)-2-cyano-1-phenylethyl)amino)-6-(((S)-(1-cyclopropyl-1H-1,2,3-triazol-4-yl)(4-fluorophenyl)methyl-d)amino)quinoline-3,8-dicarbonitrile]: in assay [1], the EC50 was 44 nM. Further, in assay [2], the IC50 stood at 2 nM.
With `[2H][C@](Nc1cc(Cl)c2ncc(C#N)c(NCC3(C(F)F)CC3)c2c1)(c1ccc(F)cc1)c1cn(C2CC2)nn1` [Example 203, (S)-8-chloro-6-(((1-cyclopropyl-1H-1,2,3-triazol-4-yl)(4-fluorophenyl)methyl-d)amino)-4-(((1-(difluoromethyl)cyclopropyl)methyl)amino) quinoline-3-carbonitrile], in assay [1], the EC50 came out at 608 nM. For the same compound, the IC50 in assay [2] is 38 nM.
The like results for `[2H][C@](Nc1cc(Cl)c2ncc(C#N)c(NC3CC(F)(F)C3)c2c1)(c1ccc(F)cc1)c1cn(C2CC2)nn1` [Example 204, (S)-8-chloro-6-(((1-cyclopropyl-1H-1,2,3-triazol-4-yl)(4-fluorophenyl)methyl-d)amino)-4-((3,3-difluorocyclobutyl)amino)quinoline-3-carbonitrile] were, in that order, 1060 nM and 97 nM.
For the compound `[2H][C@](Nc1cc(Cl)c2ncc(C#N)c(NC3CC(C)(C)C3)c2c1)(c1ccc(F)cc1)c1cn(C2CC2)nn1` [Example 205, (S)-8-chloro-6-(((1-cyclopropyl-1H-1,2,3-triazol-4-yl)(4-fluorophenyl)methyl-d)amino)-4-((3,3-dimethylcyclobutyl)amino)quinoline-3-carbonitrile], the EC50 in assay [1] came out at 873 nM. Also, the IC50 in assay [2] was determined as 38 nM.
The like results for `[2H][C@](Nc1cc(Cl)c2ncc(C#N)c(Nc3cccc(Cl)c3Cl)c2c1)(c1ccc(F)cc1)c1cn(C2CC2)nn1` [Example 206, (S)-8-chloro-6-(((1-cyclopropyl-1H-1,2,3-triazol-4-yl)(4-fluorophenyl)methyl-d)amino)-4-((2,3-dichlorophenyl)amino)quinoline-3-carbonitrile] were, in that order, 547 nM and 52 nM.
For the compound `CC(C)(C)CNc1c(C#N)cnc2c(Cl)cc(N[C@H](c3cn(C4CC4)nn3)c3ccc(F)cc3Cl)cc12` [Example 207, (S)-8-chloro-6-(((2-chloro-4-fluorophenyl) (1-cyclopropyl-1H-1,2,3-triazol-4-yl)methyl)amino)-4-(neopentylamino) quinoline-3-carbonitrile], the concentration giving a half-maximal response (EC50) in assay [1] was 305 nM. The IC50 in assay [2] amounted to 17 nM.
The matching figures for `[2H][C@](Nc1cc(C#N)c2ncc(C#N)c(N[C@H](CC)c3ccccc3)c2c1)(c1ccc(F)cc1)c1cn(C)nn1` [Example 208, 6-(((S)-(4-fluorophenyl)(1-methyl-1H-1,2,3-triazol-4-yl)methyl-d)amino)-4-(((R)-1-phenylpropyl)amino) quinoline-3,8-dicarbonitrile]: 83 nM and 3 nM.
The like results for `[2H][C@](Nc1cc(C#N)c2ncc(C#N)c(NCC(C)(C)C)c2c1)(c1ccc(F)cc1)c1cn(C)nn1` [Example 209, (S)-6-(((4-fluorophenyl)(1-methyl-1H-1,2,3-triazol-4-yl)methyl-d)amino)-4-(neopentylamino) quinoline-3,8-dicarbonitrile] were, in that order, 83 nM and 3 nM.

As usually defined, the EC50 is the concentration that produces a half-maximal response. As usually defined, the IC50 is the concentration that inhibits the measured activity by half.
